# Test results taken from patent publication US20020195406A1, “Compositions and methods for disinfecting small diameter water lines” (priority 2001, published 2002).
# “And” between values parts separate entries of the source, which are not always exact repeats. Equal entries are not always repeated.
# Legend:
# biofilms = conditions: household bleach 5.25%, glutaraldehyde 3%, isopropanol 15.3%, cited from earlier work; for effluents from biofilms after contact: 15-hours contact; for recolonization returned to pretreatment levels by day: after 15-hours contact
# [1] = system: dental unit biofilm bacteria; conditions: 13% (130,000 ppm), used periodically in one facility; cited from earlier work
# biofilm bacteria = conditions: free chlorine; cited from earlier work
# [2] = half reaction as printed; cited from earlier work
# [3] = system: bacteria in biofilms of dental water unit lines; test: Microbial counts for 6 dental water units after one 30-min treatment with 1000 ppm ClO2 (Example 1); type: cell-based; conditions: for Microbial count of unit effluent water: individual units 31-40; for Microbial count of unit effluent water, mean: mean of 6 units
# Method: Treatment: This example involved six dental water units, in a preliminary range finding study. The study was run during a particularly warm period of weather, where concomitant warmer municipal water temperatures would be expected to exacerbate biofilm contamination problems. The units were all of the same model, and were fitted with detachable water reservoirs. 100 ml of tap water was placed in each reservoir, and water was then run through the ultrasonic outlets for 30 seconds. Thereafter 30 ml of water was collected aseptically from each outlet. The reservoirs were then disconnected, and water run out of all outlets until the units ran dry. 100 ml of a 1000 ppm treatment solution, prepared as follows, was then placed in each reservoir:
# 10 ml of a 5.0% sodium chlorite solution was pipetted into a 100-ml volumetric flask already containing 75 ml of deionized water. To that was added 2.0 ml of 13% sodium hypochlorite solution (bleach). Immediately thereafter, 10.0 ml of a 1.9% citric acid solution was added, brought to volume with deionized water, sealed and the flask was agitated to mix the contents.
# All outlets were then run until the solution came through each one. The solutions were then left in each unit for 30 minutes, after which the reservoirs were disconnected and the treatment solution was run out until all three outlets from each unit were dry. The reservoirs were then rinsed and filled with water (about 1 liter), and the water then run out of all three outlets until the reservoirs were empty.
# […] Samples were also collected from the tap from which water to operate the units was taken.
# Microbial Culture: The water samples were vortex mixed, and then diluted in phosphate-buffered saline in two 10-fold dilutions. The samples were then plated onto yeast extract agar by means of a spiral plater. The plates were incubated at 22° C. for four days, after which they were counted.
# [4] = system: bacteria in biofilms of dental water unit lines; test: Microbial counts for a dental water unit after three staggered 30-min treatments with 500 ppm ClO2 (Example 2); type: cell-based
# Source text: The level, however, is probably typical of the tap water in the UK, where this study was run. In this study three staggered 30-minute exposures to 500 ppm ClO2 solution were made, and counts then made from 1 to 4 days after each treatment. The techniques of treatment and sampling were similar to those described in Example 1. The ClO2 solution was similarly prepared, using half the level of sodium chlorite and hypochlorite initially, after acidification with citric acid.
# [5] = system: bacteria in biofilms of dental water unit lines; test: Microbial counts for a dental water unit after three consecutive-day 30-min treatments with 500 ppm ClO2 (Example 3); type: cell-based
# Method: The level, however, is probably typical of the tap water in the UK, where this study was run. In this study the unit was treated as in Example 2, but on three consecutive days. Samples were taken of both the incoming supply water and from the unit before treatment on each day, with a 500 ppm ClO2 solution for 30-minutes, and also 1, 2 and 5 days after the last treatment. This schedule is represented in the chart below, along with the data derived from each water sample.
# [6] = system: bacteria in biofilms of dental water unit lines; test: Microbial counts from a dental water unit supplied with sterile water after a single 1000 ppm ClO2 30-minute exposure (Example 4); type: cell-based
# Method: Treatment: This study was run on a dental water unit that had been supplied with sterile water for a week, after its normal operation with tap water. The intent of the study was to determine if a unit, once disinfected, and not then re-exposed to tap water with excess levels of micro-organisms, would show the rebound in organism levels that has been observed in the previous examples. The unit was exposed to a single 1000 ppm solution of ClO2, prepared and applied for 30 minutes, as fully described in Example 1. Sampling and counting techniques were also the same.
# [7] = system: bacteria in biofilms of dental water unit lines; test: Microbial counts for a dental water unit after three staggered 30-min treatments with 500 ppm ClO2 (Example 2); type: cell-based; remark: listed apart in the source
# [8] = system: microorganisms in small diameter water lines; conditions: after 24 hours of treatment; approximately 10%; cited from earlier work
compound,measurement,setting,value
O=CCCCC=O [glutaraldehyde],effluents from biofilms after contact,biofilms,free of recoverable bacteria
same,recolonization returned to pretreatment levels by day,biofilms,3 days
OCl [hypochlorite],effect on bacterial counts,[1],"dramatic reductions in bacterial counts, but these rise again rather quickly"
OCl [hypochlorous acid],resistance of biofilm bacteria relative to unattached cells,biofilm bacteria,150-3000 times
same,oxidation potential,[2],1.49 V
CC(C)O [isopropanol],effluents from biofilms after contact,biofilms,free of recoverable bacteria
same,recolonization returned to pretreatment levels by day,biofilms,15 days
chlorine dioxide [ClO2],reduction in the effluent's cfu/ml,"[3]; after day two vs T=0, 1000 ppm, 30 min",27 fold
same,difference from T=0,"[3]; after day two, 1000 ppm, 30 min",1.43 logs
same,DWU effluent count relative to tap water,"[3]; day 3 after treatment, 1000 ppm, 30 min",approximated that of the tap water
same,Microbial count of unit effluent water,[3]; 1 day after 30-min treatment with 1000 ppm ClO2,1.90 log cfu/ml and 2.08 log cfu/ml and 2.45 log cfu/ml and 3.85 log cfu/ml and 2.30 log cfu/ml and 1.30 log cfu/ml
same,Microbial count of unit effluent water,[3]; 2 days after 30-min treatment with 1000 ppm ClO2,2.78 log cfu/ml and 3.56 log cfu/ml and 3.86 log cfu/ml and 3.32 log cfu/ml and 2.51 log cfu/ml and 3.03 log cfu/ml
same,Microbial count of unit effluent water,[3]; 3 days after 30-min treatment with 1000 ppm ClO2,3.94 log cfu/ml and 3.85 log cfu/ml and 5.25 log cfu/ml and 4.34 log cfu/ml and 2.62 log cfu/ml and 2.81 log cfu/ml
same,"Microbial count of unit effluent water, mean",[3]; 1 day after 30-min 1000 ppm ClO2,2.31 log cfu/ml
same,"Microbial count of unit effluent water, mean",[3]; 2 days after 30-min 1000 ppm ClO2,3.18 log cfu/ml
same,"Microbial count of unit effluent water, mean",[3]; 3 days after 30-min 1000 ppm ClO2,3.80 log cfu/ml
same,drop in bacterial colonies per ml of effluent water,"[3]; one day after treatment vs T=0, 1000 ppm, 30 min",2.3 log
same,bacterial colonies per ml of effluent water,"[3]; one day after treatment, numerical value of mean, 1000 ppm, 30 min",204 colonies per ml
same,reduction in organisms in the effluent water,[4]; after the first 500 ppm treatment,83 fold
same,reduction of unit's count,[4]; after the first 500 ppm treatment (day 0 to day 1),1.92 logs
same,Unit Microbial Count,"[4]; day 1, one day after first 30-min 500 ppm treatment (day 0)",2.66 log cfu/ml
same,Unit Microbial Count,"[4]; day 4, four days after first 500 ppm treatment",4.66 log cfu/ml
same,Unit Microbial Count,"[4]; day 8, one day after second 500 ppm treatment",3.04 log cfu/ml
same,Unit Microbial Count,"[4]; day 11, four days after second 500 ppm treatment, before third",4.18 log cfu/ml
same,Unit Microbial Count,"[4]; day 12, one day after third 500 ppm treatment",1.60 log cfu/ml
same,Unit Microbial Count,"[4]; day 15, four days after third 500 ppm treatment",3.15 log cfu/ml
same,unit count below that of the incoming water,[5]; Day 4,0.9 logs
same,unit count below that of the incoming water,[5]; Day 5,0.8 logs
same,count in the issuing water higher than the supply water,"[5]; Day 8, five days after the last treatment",1.0 log
same,Unit Count,"[5]; day 2, 1 day after first 30-min 500 ppm treatment",2.7 log cfu/ml
same,Unit Count,"[5]; day 3, 1 day after second consecutive 500 ppm treatment",1.8 log cfu/ml
same,Unit Count,"[5]; day 4, 1 day after third consecutive 500 ppm treatment",2.8 log cfu/ml
same,Unit Count,"[5]; day 5, 2 days after last 500 ppm treatment",2.3 log cfu/ml
same,Unit Count,"[5]; day 8, 5 days after last 500 ppm treatment",3.9 log cfu/ml
same,unit count below that of the incoming water,[5]; one day after the first 500 ppm treatment (day 2),1.2 logs
same,Unit Count,[6]; 4th day post-application,0 cfu/ml
same,"Microbial Counts, Unit Water","[6]; day 8, 1 day after single 1000 ppm 30-min exposure, sterile water supply, unit active",2.26 log cfu/ml
same,"Microbial Counts, Unit Water","[6]; day 9, 2 days after exposure, sterile water supply, active",1.3 log cfu/ml
same,"Microbial Counts, Unit Water","[6]; day 10, 3 days after exposure, sterile water supply, active",1.3 log cfu/ml
same,"Microbial Counts, Unit Water","[6]; day 11, 4 days after exposure, sterile water supply, active",0 log cfu/ml
same,"Microbial Counts, Unit Water","[6]; day 14, 7 days after exposure, after passive weekend (days 12-13)",3.88 log cfu/ml
same,Unit Count,"[6]; days 2-3 post-application, numerical value of 1.3 logs",20 organisms per ml
same,Unit Count,"[6]; one day after treatment, numerical value",182 cfu/ml
same,further drop,[6]; subsequent 2 days after day 8,10 fold
same,population drop,[6]; within a day of the ClO2 treatment,"about 40,500 microbial organism per ml of water"
same,drop of unit count,"[6]; within a day of the ClO2 treatment, from pre-treatment average of 4.61 logs",2.35 log cfu/ml
same,Unit Microbial Count,"[7]; day 7, seven days after first 500 ppm treatment, before second",5.83 log cfu/ml
same,Unit Microbial Count,"[7]; day 18, 7 days after third 500 ppm treatment",4.08 log cfu/ml
povidone-iodine,numbers of bacteria after treatment,[8],greatly reduced
same,regrowth of bacteria after treatment,[8],quickly begin to rise after eight days
